Activity calls are given as the source filed them.

One experiment deals with T1, Streptokinase A (Streptococcus pyogenes serotype M1, UniProt P10520).
T1 sequence (P10520 whole entry): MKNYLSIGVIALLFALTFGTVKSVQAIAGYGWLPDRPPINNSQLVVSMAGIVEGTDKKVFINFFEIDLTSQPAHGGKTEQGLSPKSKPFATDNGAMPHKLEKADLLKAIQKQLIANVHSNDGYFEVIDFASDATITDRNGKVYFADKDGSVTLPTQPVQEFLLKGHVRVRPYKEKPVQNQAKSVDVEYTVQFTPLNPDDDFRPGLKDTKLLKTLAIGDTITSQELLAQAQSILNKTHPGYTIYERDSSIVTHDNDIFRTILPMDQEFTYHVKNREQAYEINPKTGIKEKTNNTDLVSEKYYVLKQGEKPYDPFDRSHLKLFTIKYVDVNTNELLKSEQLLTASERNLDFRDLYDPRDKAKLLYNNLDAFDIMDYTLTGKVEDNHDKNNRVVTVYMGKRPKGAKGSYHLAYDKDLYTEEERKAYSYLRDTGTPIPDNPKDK
Kind of experiment: viability-normalized secreted streptokinase activity reduction – plasminogen activation absorbance, OD405, dose response (AID 1914).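 Further: secreted streptokinase activity via plasminogen activation per viability signal from cell pellet.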 It is filed as functional, Streptococcus pyogenes M1 GAS.

Experiment [1] in a line: NIH-3T3 fibroblast cytotoxicity, dose response, cytotoxicity control, cell-based, fluorescence, Alamar Blue, secondary assay (AID 2327).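 Further: NIH-3T3 mouse fibroblasts cultured with fluconazole at 8 µg/mL.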 It is filed as functional. Background: Alamar Blue is a resazurin reagent that responds to reducing activity.
Experiment [2] can be described thus: fluconazole-exposed Candida albicans growth modulators – fluorescence, retest, confirmation (AID 2467). It is filed as functional, cell-based.
In experiment [3] the target is T2, Mannose-6-phosphate isomerase (Homo sapiens, UniProt P34949).
T2 sequence (P34949 whole entry): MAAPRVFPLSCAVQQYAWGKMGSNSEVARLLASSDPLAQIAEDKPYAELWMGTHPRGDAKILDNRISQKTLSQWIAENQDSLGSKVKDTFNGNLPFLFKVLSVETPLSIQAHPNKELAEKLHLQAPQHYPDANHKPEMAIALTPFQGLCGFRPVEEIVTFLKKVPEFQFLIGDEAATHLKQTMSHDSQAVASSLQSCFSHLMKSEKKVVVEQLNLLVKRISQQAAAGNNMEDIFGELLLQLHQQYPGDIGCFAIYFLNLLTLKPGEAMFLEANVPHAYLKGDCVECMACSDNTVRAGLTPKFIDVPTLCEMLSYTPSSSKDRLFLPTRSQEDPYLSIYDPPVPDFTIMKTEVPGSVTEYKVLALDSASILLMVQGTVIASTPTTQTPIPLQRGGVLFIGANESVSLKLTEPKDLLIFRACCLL
As to the kind of experiment: MPI inhibition at elevated mannose 6-phosphate – biochemical, fluorescence intensity, high mannose 6-phosphate, primary screen (AID 1220).

A further experiment deals with Genome polyprotein (dengue virus type 2, UniProt P29990). Kind of experiment: flavivirus cap methylation enzyme inhibition – biochemical, confirmation dose response, primary screen (AID 588689). It is filed as functional.
Experiment [4] is described as follows: luciferase reporter signal suppression in cells – H4 neuroglioma cells, luminescence, dose response (AID 1990). It is filed as functional, cell-based. A general note: A reporter such as luciferase makes a cellular process visible.
The target of experiment [5] is T3, Ubiquitin-conjugating enzyme E2 N (Homo sapiens, UniProt P61088).
T3 sequence (P61088 whole entry): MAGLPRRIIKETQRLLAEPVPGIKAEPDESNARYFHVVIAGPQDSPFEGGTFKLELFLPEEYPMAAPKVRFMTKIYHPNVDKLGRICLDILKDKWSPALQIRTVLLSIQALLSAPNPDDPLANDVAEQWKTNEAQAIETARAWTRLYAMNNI
It is filed as functional.

In experiment [6] the target is T4, DNA repair and recombination protein RAD54-like (Homo sapiens, UniProt Q92698).
T4 sequence (Q92698 whole entry): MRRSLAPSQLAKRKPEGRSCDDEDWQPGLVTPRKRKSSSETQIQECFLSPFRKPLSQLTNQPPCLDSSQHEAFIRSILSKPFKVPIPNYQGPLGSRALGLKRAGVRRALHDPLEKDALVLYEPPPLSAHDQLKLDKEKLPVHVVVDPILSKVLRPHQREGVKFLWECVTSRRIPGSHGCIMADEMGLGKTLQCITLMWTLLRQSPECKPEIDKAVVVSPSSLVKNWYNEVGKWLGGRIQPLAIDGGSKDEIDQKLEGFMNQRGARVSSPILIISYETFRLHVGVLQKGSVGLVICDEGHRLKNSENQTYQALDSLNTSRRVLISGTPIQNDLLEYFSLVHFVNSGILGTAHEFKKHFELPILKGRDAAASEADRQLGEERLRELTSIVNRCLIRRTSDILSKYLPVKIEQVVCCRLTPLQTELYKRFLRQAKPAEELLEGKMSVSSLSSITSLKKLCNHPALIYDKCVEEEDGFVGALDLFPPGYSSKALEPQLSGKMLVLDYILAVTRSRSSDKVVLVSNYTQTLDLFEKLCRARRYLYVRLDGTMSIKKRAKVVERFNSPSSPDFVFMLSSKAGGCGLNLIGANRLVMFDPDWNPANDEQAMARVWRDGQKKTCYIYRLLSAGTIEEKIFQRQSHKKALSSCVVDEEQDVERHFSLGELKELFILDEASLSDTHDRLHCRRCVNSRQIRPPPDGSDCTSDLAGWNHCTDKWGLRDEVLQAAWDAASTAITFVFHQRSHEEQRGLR
Kind of experiment: RAD54 Holliday junction migration blockers – biochemical, fluorescence, cherry-picked samples, dose series, confirmation (AID 651657). It is filed as functional.

Experiment [7] concerns the target Photoreceptor-specific nuclear receptor (Homo sapiens, UniProt Q9Y5X4). It is filed as functional.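 Further: potency for compounds that break the NR2E3 corepressor complex and count as activators.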
The target in a further experiment is T5, Caspase-3 (Homo sapiens, UniProt P42574).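 Further: Dose-response selectivity test against caspase-3 for candidate inhibitors of sentrin-specific proteases (SENPs).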
T5 sequence (P42574 whole entry): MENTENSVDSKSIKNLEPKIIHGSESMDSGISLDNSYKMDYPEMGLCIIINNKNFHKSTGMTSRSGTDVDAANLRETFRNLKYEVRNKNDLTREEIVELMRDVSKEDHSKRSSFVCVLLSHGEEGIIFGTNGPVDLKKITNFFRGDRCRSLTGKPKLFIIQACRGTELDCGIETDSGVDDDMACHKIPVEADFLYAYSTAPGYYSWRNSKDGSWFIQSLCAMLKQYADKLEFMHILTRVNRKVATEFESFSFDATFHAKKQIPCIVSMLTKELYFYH
The experiment is classed as functional.

Genome polyprotein, sequence (P29990 2492-3391 limits assumed): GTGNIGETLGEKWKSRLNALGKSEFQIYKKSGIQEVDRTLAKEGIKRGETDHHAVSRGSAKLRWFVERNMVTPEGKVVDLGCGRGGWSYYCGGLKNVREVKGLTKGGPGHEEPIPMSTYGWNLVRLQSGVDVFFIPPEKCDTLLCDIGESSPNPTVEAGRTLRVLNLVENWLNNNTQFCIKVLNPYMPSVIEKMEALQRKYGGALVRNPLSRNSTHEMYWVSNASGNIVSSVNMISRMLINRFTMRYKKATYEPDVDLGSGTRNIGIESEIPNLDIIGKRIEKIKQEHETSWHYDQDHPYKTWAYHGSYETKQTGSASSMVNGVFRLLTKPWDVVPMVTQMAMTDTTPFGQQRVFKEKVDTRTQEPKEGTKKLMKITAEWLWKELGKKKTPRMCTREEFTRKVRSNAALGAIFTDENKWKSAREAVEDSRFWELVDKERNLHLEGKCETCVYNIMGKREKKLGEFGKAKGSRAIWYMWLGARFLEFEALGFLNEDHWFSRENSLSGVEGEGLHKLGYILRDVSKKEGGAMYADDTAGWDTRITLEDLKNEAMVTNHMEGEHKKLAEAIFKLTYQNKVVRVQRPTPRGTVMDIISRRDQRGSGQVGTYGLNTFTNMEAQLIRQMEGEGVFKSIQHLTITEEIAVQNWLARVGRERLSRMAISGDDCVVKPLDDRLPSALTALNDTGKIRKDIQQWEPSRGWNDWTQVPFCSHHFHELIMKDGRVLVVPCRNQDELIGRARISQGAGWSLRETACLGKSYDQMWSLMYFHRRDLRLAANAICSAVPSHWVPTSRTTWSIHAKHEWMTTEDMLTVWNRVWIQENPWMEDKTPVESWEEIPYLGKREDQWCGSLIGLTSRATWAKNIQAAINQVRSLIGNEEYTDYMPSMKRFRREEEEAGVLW
Photoreceptor-specific nuclear receptor, sequence (Q9Y5X4 whole entry): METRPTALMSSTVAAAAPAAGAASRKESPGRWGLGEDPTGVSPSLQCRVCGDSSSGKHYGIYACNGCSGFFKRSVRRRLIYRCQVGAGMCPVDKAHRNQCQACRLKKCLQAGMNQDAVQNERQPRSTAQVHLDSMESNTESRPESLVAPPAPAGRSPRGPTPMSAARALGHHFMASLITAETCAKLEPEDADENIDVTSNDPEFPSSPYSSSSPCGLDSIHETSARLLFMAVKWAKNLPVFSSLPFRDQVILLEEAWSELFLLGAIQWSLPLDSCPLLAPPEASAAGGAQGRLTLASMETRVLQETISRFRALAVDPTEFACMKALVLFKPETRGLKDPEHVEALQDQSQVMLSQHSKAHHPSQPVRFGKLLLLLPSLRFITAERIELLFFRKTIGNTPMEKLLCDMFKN

As for `CCCCCCCCCCOC(=O)Cn1c(COc2ccccc2)[n+](C)c2ccccc21`, on Streptokinase A, the concentration giving a half-maximal response (EC50) is > 150 µM (not active).
For `COc1cc(-c2nnc(SCc3cc(=O)oc4cc(O)c(O)cc34)o2)cc(OC)c1OC`, the EC50 was > 150 µM (inactive) in experiment [1] and > 38 µM (not active) in experiment [2]. The concentration for half-maximal inhibition (IC50) is > 50 µM (not active) in [3] and > 100 µM (active) at Genome polyprotein.
As for `CCOC(=O)c1c(-c2ccc(-c3ccccc3)cc2)csc1NC(=O)CNCCN(C)C`, the EC50 in experiment [4] is listed as > 120 µM (not active). Also, the concentration for half-maximal inhibition (IC50) in [5] was 10.1 µM (active). Besides, the AC50 in [6] is 68 µM (active).
With `N#Cc1c(NC(=O)c2ccc(Br)o2)n(-c2ccccc2)c2nc3ccccc3nc12`, the IC50 in experiment [7] is > 39.8 µM (not active); at Caspase-3, 29.6 µM (active).

One may read the EC50 as the concentration at which the effect is half-maximal. In general, IC50 refers to the concentration at which inhibition is half-maximal. For orientation: AC50 means the concentration at which the activity in the assay is half-maximal.

For the origin of these results see ChEMBL document CHEMBL1201862, “PubChem BioAssay data set” (2004).
